# Test results reported in patent publication US10716827B2 (priority 2015, dated 2020).
# Target: GLP-1R (Homo sapiens, UniProt P43220)
# Sequence (P43220 24-463, species assumed): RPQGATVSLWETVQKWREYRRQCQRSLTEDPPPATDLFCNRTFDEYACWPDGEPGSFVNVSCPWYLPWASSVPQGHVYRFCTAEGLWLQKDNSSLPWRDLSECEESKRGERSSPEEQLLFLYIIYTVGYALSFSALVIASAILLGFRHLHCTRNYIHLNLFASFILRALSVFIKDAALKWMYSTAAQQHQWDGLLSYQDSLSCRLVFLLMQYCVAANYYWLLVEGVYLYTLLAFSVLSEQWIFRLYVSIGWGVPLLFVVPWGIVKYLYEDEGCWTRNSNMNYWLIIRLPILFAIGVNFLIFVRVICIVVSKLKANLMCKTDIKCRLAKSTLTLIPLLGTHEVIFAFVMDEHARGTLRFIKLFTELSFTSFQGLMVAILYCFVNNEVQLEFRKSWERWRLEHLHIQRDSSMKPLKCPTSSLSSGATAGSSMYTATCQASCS
substance,measurement,setting,value
HGEGTFTSDLS(Kazido)QMEEEAVRLFIENWLKNGGPSSGAPSSGAPPPS [compound 1],% Change in FRET at 100 nM,"100 nM, undigested",−12 ± 0.01%
same,potency compared to unmodified Ex-4,azido modification at K12,no significant reduction in potency
